Assay results reported in ChEMBL document CHEMBL2331210, “New 2-benzylsulfanyl-nicotinic acid based 1,3,4-oxadiazoles: their synthesis and biological evaluation” (2013).
≈ marks a conversion by molar mass, not a printed value.

Assays:
[1] = tested on: UO-31; assay: Antitumor activity against human UO31 cells assessed as cell growth at 0.1 uM; assay type: functional; conditions: read-out: Activity
[2] = tested on: TK-10; assay: Antitumor activity against human TK10 cells assessed as cell growth at 0.1 uM; assay type: functional; conditions: read-out: Activity
[3] = tested on: SN12C; assay: Antitumor activity against human SN12C cells assessed as cell growth at 0.1 uM; assay type: functional; conditions: read-out: Activity
[4] = tested on: RXF 393; assay: Antitumor activity against human RXF393 cells assessed as cell growth at 0.1 uM; assay type: functional; conditions: read-out: Activity
[5] = tested on: ACHN; assay: Antitumor activity against human ACHN cells assessed as cell growth at 0.1 uM; assay type: functional; conditions: read-out: Activity
[6] = tested on: CAKI-1; assay: Antitumor activity against human CAKI-1 cells assessed as cell growth at 0.1 uM; assay type: functional; conditions: read-out: Activity
[7] = tested on: A498; assay: Antitumor activity against human A498 cells assessed as cell growth at 0.1 uM; assay type: functional; conditions: read-out: Activity
[8] = tested on: SK-OV-3; assay: Antitumor activity against human SKOV3 cells assessed as cell growth at 0.1 uM; assay type: functional; conditions: read-out: Activity
[9] = tested on: NCI/ADR-RES; assay: Antitumor activity against human NCI/ADR-RES cells assessed as cell growth at 0.1 uM; assay type: functional; conditions: read-out: Activity
[10] = tested on: OVCAR-8; assay: Antitumor activity against human OVCAR8 cells assessed as cell growth at 0.1 uM; assay type: functional; conditions: read-out: Activity
[11] = tested on: OVCAR-5; assay: Antitumor activity against human OVCAR5 cells assessed as cell growth at 0.1 uM; assay type: functional; conditions: read-out: Activity
[12] = tested on: OVCAR-3; assay: Antitumor activity against human OVCAR3 cells assessed as cell growth at 0.1 uM; assay type: functional; conditions: read-out: Activity
[13] = tested on: OVCAR-4; assay: Antitumor activity against human OVCAR4 cells assessed as cell growth at 0.1 uM; assay type: functional; conditions: read-out: Activity
[14] = tested on: IGROV-1; assay: Antitumor activity against human IGROV1 cells assessed as cell growth at 0.1 uM; assay type: functional; conditions: read-out: Activity
[15] = tested on: UACC-62; assay: Antitumor activity against human UACC62 cells assessed as cell growth at 0.1 uM; assay type: functional; conditions: read-out: Activity
[16] = tested on: UACC-257; assay: Antitumor activity against human UACC257 cells assessed as cell growth at 0.1 uM; assay type: functional; conditions: read-out: Activity
[17] = tested on: SK-MEL-5; assay: Antitumor activity against human SK-MEL-5 cells assessed as cell growth at 0.1 uM; assay type: functional; conditions: read-out: Activity
[18] = tested on: SK-MEL-28; assay: Antitumor activity against human SK-MEL-28 cells assessed as cell growth at 0.1 uM; assay type: functional; conditions: read-out: Activity
[19] = tested on: MDA-MB-435; assay: Antitumor activity against human MDA-MB-435 cells assessed as cell growth at 0.1 uM; assay type: functional; conditions: read-out: Activity
[20] = tested on: M14; assay: Antitumor activity against human M14 cells assessed as cell growth at 0.1 uM; assay type: functional; conditions: read-out: Activity
[21] = tested on: Malme-3M; assay: Antitumor activity against human MALME-3M cells assessed as cell growth at 0.1 uM; assay type: functional; conditions: read-out: Activity
[22] = tested on: LOX IMVI; assay: Antitumor activity against human LOXIMVI cells assessed as cell growth at 0.1 uM; assay type: functional; conditions: read-out: Activity
[23] = tested on: U-251; assay: Antitumor activity against human U251 cells assessed as cell growth at 0.1 uM; assay type: functional; conditions: read-out: Activity
[24] = tested on: SNB-75; assay: Antitumor activity against human SNB75 cells assessed as cell growth at 0.1 uM; assay type: functional; conditions: read-out: Activity
[25] = tested on: SF-539; assay: Antitumor activity against human SF539 cells assessed as cell growth at 0.1 uM; assay type: functional; conditions: read-out: Activity
[26] = tested on: SNB-19; assay: Antitumor activity against human SNB19 cells assessed as cell growth at 0.1 uM; assay type: functional; conditions: read-out: Activity
[27] = tested on: SF-295; assay: Antitumor activity against human SF295 cells assessed as cell growth at 0.1 uM; assay type: functional; conditions: read-out: Activity
[28] = tested on: SF-268; assay: Antitumor activity against human SF268 cells assessed as cell growth at 0.1 uM; assay type: functional; conditions: read-out: Activity
[29] = tested on: SW-620; assay: Antitumor activity against human SW620 cells assessed as cell growth at 0.1 uM; assay type: functional; conditions: read-out: Activity
[30] = tested on: HCT-15; assay: Antitumor activity against human HCT15 cells assessed as cell growth at 0.1 uM; assay type: functional; conditions: read-out: Activity
[31] = tested on: HT-29; assay: Antitumor activity against human HT-29 cells assessed as cell growth at 0.1 uM; assay type: functional; conditions: read-out: Activity
[32] = tested on: HCT-116; assay: Antitumor activity against human HCT116 cells assessed as cell growth at 0.1 uM; assay type: functional; conditions: read-out: Activity
[33] = Antitumor activity against human HCC2998 cells assessed as cell growth at 0.1 uM; assay type: functional; conditions: HCC 2998, read-out: Activity
[34] = tested on: NCI-H460; assay: Antitumor activity against human NCI-H460 cells assessed as cell growth at 0.1 uM; assay type: functional; conditions: read-out: Activity
[35] = tested on: NCI-H522; assay: Antitumor activity against human NCI-H522 cells assessed as cell growth at 0.1 uM; assay type: functional; conditions: read-out: Activity
[36] = tested on: NCI-H23; assay: Antitumor activity against human NCI-H23 cells assessed as cell growth at 0.1 uM; assay type: functional; conditions: read-out: Activity
[37] = tested on: NCI-H226; assay: Antitumor activity against human NCI-H226 cells assessed as cell growth at 0.1 uM; assay type: functional; conditions: read-out: Activity
[38] = tested on: HOP-62; assay: Antitumor activity against human HOP62 cells assessed as cell growth at 0.1 uM; assay type: functional; conditions: read-out: Activity
[39] = Antitumor activity against human EKVX cells assessed as cell growth at 0.1 uM; assay type: functional; conditions: read-out: Activity
[40] = tested on: A549; assay: Antitumor activity against human A549/ATCC cells assessed as cell growth at 0.1 uM; assay type: functional; conditions: read-out: Activity
[41] = tested on: SR; assay: Antitumor activity against human SR cells assessed as cell growth at 0.1 uM; assay type: functional; conditions: read-out: Activity
[42] = tested on: MOLT-4; assay: Antitumor activity against human MOLT4 cells assessed as cell growth at 0.1 uM; assay type: functional; conditions: read-out: Activity
[43] = tested on: RPMI-8226; assay: Antitumor activity against human RPMI8226 cells assessed as cell growth at 0.1 uM; assay type: functional; conditions: read-out: Activity
[44] = tested on: K562; assay: Antitumor activity against human K562 cells assessed as cell growth at 0.1 uM; assay type: functional; conditions: read-out: Activity
[45] = tested on: HL-60; assay: Antitumor activity against human HL60(TB) cells assessed as cell growth at 0.1 uM; assay type: functional; conditions: read-out: Activity
[46] = tested on: CCRF-CEM; assay: Antitumor activity against human CCRF-CEM cells assessed as cell growth at 0.1 uM; assay type: functional; conditions: read-out: Activity
[47] = tested on: Mycobacterium tuberculosis; assay: Antitubercular activity against Mycobacterium tuberculosis H37Rv assessed as growth inhibition after 12 to 28 days by L.J. agar MIC method; assay type: functional
[48] = tested on: Aspergillus clavatus; assay: Antimicrobial activity against Aspergillus clavatus MTCC 1323 assessed as growth inhibition measured after overnight incubation by broth dilution method; assay type: functional
[49] = tested on: Aspergillus niger; assay: Antimicrobial activity against Aspergillus niger MTCC 282 assessed as growth inhibition measured after overnight incubation by broth dilution method; assay type: functional
[50] = tested on: Candida albicans; assay: Antimicrobial activity against Candida albicans MTCC 227 assessed as growth inhibition measured after overnight incubation by broth dilution method; assay type: functional
[51] = tested on: Pseudomonas aeruginosa; assay: Antimicrobial activity against Pseudomonas aeruginosa MTCC 2488 assessed as growth inhibition measured after overnight incubation by broth dilution method; assay type: functional
[52] = tested on: Escherichia coli; assay: Antimicrobial activity against Escherichia coli MTCC 443 assessed as growth inhibition measured after overnight incubation by broth dilution method; assay type: functional
[53] = tested on: Streptococcus pyogenes; assay: Antimicrobial activity against Streptococcus pyogenes MTCC 442 assessed as growth inhibition measured after overnight incubation by broth dilution method; assay type: functional
[54] = tested on: Staphylococcus aureus; assay: Antimicrobial activity against Staphylococcus aureus MTCC 96 assessed as growth inhibition measured after overnight incubation by broth dilution method; assay type: functional
[55] = tested on: MDA-MB-468; assay: Antitumor activity against human MDA-MB-468 cells assessed as cell growth at 0.1 uM; assay type: functional; conditions: read-out: Activity
[56] = tested on: T47D; assay: Antitumor activity against human T47D cells assessed as cell growth at 0.1 uM; assay type: functional; conditions: read-out: Activity
[57] = Antitumor activity against human Hs 578T cells assessed as cell growth at 0.1 uM; assay type: functional; conditions: read-out: Activity
[58] = tested on: BT-549; assay: Antitumor activity against human BT549 cells assessed as cell growth at 0.1 uM; assay type: functional; conditions: read-out: Activity
[59] = tested on: MDA-MB-231; assay: Antitumor activity against human MDA-MB-231/ATCC cells assessed as cell growth at 0.1 uM; assay type: functional; conditions: read-out: Activity
[60] = tested on: DU-145; assay: Antitumor activity against human DU145 cells assessed as cell growth at 0.1 uM; assay type: functional; conditions: read-out: Activity
[61] = tested on: MCF7; assay: Antitumor activity against human MCF7 cells assessed as cell growth at 0.1 uM; assay type: functional; conditions: read-out: Activity
[62] = tested on: PC-3; assay: Antitumor activity against human PC3 cells assessed as cell growth at 0.1 uM; assay type: functional; conditions: read-out: Activity
[63] = tested on: SK-MEL-2; assay: cells; conditions: Homo sapiens, SK-MEL-2, read-out: Activity
Description: Antitumor activity against human SK-MEL-2 cells assessed as cell growth at 0.1 uM

For O=C(CSc1nnc(-c2cccnc2SCc2ccccc2)o1)Nc1nc(Cl)cc(Cl)n1, the growth at 0.1 µM [1] was 67.7%, the growth at 0.1 µM [2] was 109% and the growth at 0.1 µM [3] was 103%. The growth at 0.1 µM [4] was 105%, the growth at 0.1 µM [5] was 103% and the growth at 0.1 µM [6] was 95.8%. It also gave a growth at 0.1 µM [7] of 112%, a growth at 0.1 µM [8] of 110% and a growth at 0.1 µM [9] of 101%. For the same molecule, the growth at 0.1 µM [10] was 102%, the growth at 0.1 µM [11] was 106% and the growth at 0.1 µM [12] was 106%. For the same molecule, the growth at 0.1 µM [13] was 106%, the growth at 0.1 µM [14] was 105% and the growth at 0.1 µM [15] was 101%. The growth at 0.1 µM [16] was 113%, the growth at 0.1 µM [17] was 101% and the growth at 0.1 µM [18] was 113%. For the same molecule, the growth at 0.1 µM [19] was 105%, the growth at 0.1 µM [20] was 92% and the growth at 0.1 µM [21] was 94%. For the same molecule, the growth at 0.1 µM [22] was 94.9%, the growth at 0.1 µM [23] was 106% and the growth at 0.1 µM [24] was 85.7%. For the same molecule, the growth at 0.1 µM [25] was 101%, the growth at 0.1 µM [26] was 106% and the growth at 0.1 µM [27] was 96.8%. It also gave a growth at 0.1 µM [28] of 99.8%, a growth at 0.1 µM [29] of 103% and a growth at 0.1 µM [30] of 106%. For the same molecule, the growth at 0.1 µM [31] was 110%, the growth at 0.1 µM [32] was 97.2% and the growth at 0.1 µM [33] was 103%. For the same molecule, the growth at 0.1 µM [34] was 105%, the growth at 0.1 µM [35] was 83.1% and the growth at 0.1 µM [36] was 102%. The growth at 0.1 µM [37] was 83.7%, the growth at 0.1 µM [38] was 90.6% and the growth at 0.1 µM [39] was 103%. For the same molecule, the growth at 0.1 µM [40] was 104%, the growth at 0.1 µM [41] was 101% and the growth at 0.1 µM [42] was 95.7%. It also gave a growth at 0.1 µM [43] of 100%, a growth at 0.1 µM [44] of 92.8% and a growth at 0.1 µM [45] of 98.3%. The growth at 0.1 µM [46] was 101%, the “growth inhibition (GI)” value [47] was 98% and the MIC ([47]; Mycobacterium tuberculosis, H37Rv) was 100 µg/mL (≈ 198 µM). It also gave an MIC [48] of 500 µg/mL (≈ 989 µM), an MIC [49] of 500 µg/mL (≈ 989 µM) and an MIC [50] of 1000 µg/mL (≈ 1980 µM). The MIC [51] was 200 µg/mL (≈ 396 µM), the MIC [52] was 200 µg/mL (≈ 396 µM) and the MIC [53] was 200 µg/mL (≈ 396 µM). For the same molecule, the MIC [54] was 250 µg/mL (≈ 495 µM), the growth at 0.1 µM [55] was 98.8% and the growth at 0.1 µM [56] was 98.5%. For the same molecule, the growth at 0.1 µM [57] was 97.4%, the growth at 0.1 µM [58] was 102% and the growth at 0.1 µM [59] was 92%. The growth at 0.1 µM [60] was 107%, the growth at 0.1 µM [61] was 92% and the growth at 0.1 µM [62] was 94.5%. For the same molecule, the growth at 0.1 µM [63] was 102%.
